In ChEMBL document CHEMBL3621083, “Dehydroabietylamine derivatives as multifunctional agents for the treatment of Alzheimer's disease” (Medchemcomm, 2014):
pIC50: −log10 of the molar value. The source made the active and inactive calls. The calls are words filed in the database; no cut-off is given here.

Experiments:
SH-SY5Y [1] = assay: Anti-oxidative activity in human SH-SY5Y cells assessed as reduction of ROS generation at 10 uM using DCFH-DA; assay type: functional
[2] = target: T1, Amyloid-beta precursor protein (Homo sapiens, UniProt P05067); assay: Inhibition of amyloid beta-42 (unknown origin) self-mediated aggregation at 50 uM by thioflavin-T fluorescence assay
[3] = target: T1, Amyloid-beta precursor protein; assay: Inhibition of amyloid beta-42 (unknown origin) aging fibrils disaggregation at 50 uM by thioflavin-T fluorescence assay
Caenorhabditis elegans [4] = assay: Anti-Alzheimer's activity in Caenorhabditis elegans CL4176 expressing amyloid beta assessed as increase of average time of life expectancy at 500 uM (reference value: 46.9 +/- 0.54 hrs); assay type: functional
Caenorhabditis elegans [5] = assay: Anti-Alzheimer's activity in Caenorhabditis elegans CL4176 assessed as delay in amyloid beta-induced paralysis at 500 uM after 36 hrs of amyloid beta expression; assay type: functional, organism-based
SH-SY5Y [6] = assay: Cytotoxicity against human SH-SY5Y cells assessed as cell viability at 10 uM after 48 hrs by MTT assay; assay type: cell-based
Caenorhabditis elegans [7] = assay: Anti-Alzheimer's activity in Caenorhabditis elegans CL4176 expressing amyloid beta assessed as increase of average time of life expectancy at 50 uM (reference value: 46.9 +/- 0.54 hrs); assay type: functional
SH-SY5Y [8] = assay: Neuroprotective activity in human SH-SY5Y cells assessed as protection against amyloid beta-42-induced cell death at 5 to 50 uM after 48 hrs by MTT assay (reference value: 50.02 +/- 4.98%); assay type: functional
[9] = target: T1, Amyloid-beta precursor protein; assay: Inhibition of amyloid beta-42 (unknown origin) aging fibrils disaggregation by thioflavin-T fluorescence assay
Caenorhabditis elegans [10] = assay: Anti-Alzheimer's activity in Caenorhabditis elegans CL4176 expressing amyloid beta assessed as increase of average time of life expectancy at 10 uM (reference value: 46.9 +/- 0.54 hrs); assay type: functional
[11] = target: T1, Amyloid-beta precursor protein; assay: Inhibition of swAPP-mediated amyloid beta-42 production in human HEK293 cells at 25 uM after 48 hrs by ELISA (reference value: 100 +/-3.45%); assay type: cell-based; design: scale not given: the % may be the effect or the level left
[12] = target: T1, Amyloid-beta precursor protein; assay: Inhibition of amyloid beta-42 (unknown origin) fibrils formation at 50 uM after 48 hrs by transmission electron microscopy analysis
[13] = target: T1, Amyloid-beta precursor protein; assay: Inhibition of fibrils formation in aggregated amyloid beta-42 (unknown origin) assessed as short fibril formation at 50 uM after 48 hrs by transmission electron microscopy analysis
Caenorhabditis elegans [14] = assay: Anti-Alzheimer's activity in Caenorhabditis elegans CL4176 expressing amyloid beta assessed as increase of average time of life expectancy at 200 uM (reference value: 46.9 +/- 0.54 hrs); assay type: functional
Caenorhabditis elegans [15] = assay: Anti-Alzheimer's activity in Caenorhabditis elegans CL4176 assessed as delay in amyloid beta-induced paralysis at 10 to 50 uM after 36 hrs of amyloid beta expression; assay type: functional, organism-based
Caenorhabditis elegans [16] = assay: Reduction of amyloid beta expression in Caenorhabditis elegans CL4176 at 10 to 50 uM by Western blot analysis; assay type: functional, organism-based
[17] = Cytotoxicity against human HEK293 cells expressing swAPP assessed as cell viability at 25 uM after 48 hrs by MTT assay; assay type: cell-based; conditions: read-out: Activity
[18] = target: T1, Amyloid-beta precursor protein; assay: Increase of alpha-helics formation in amyloid beta-42 (unknown origin) at 40 uM after 48 hrs by circular dichroism spectra analysis
[19] = target: T1, Amyloid-beta precursor protein; assay: Inhibition of amyloid beta-42 (unknown origin) self-mediated aggregation by thioflavin-T fluorescence assay
[20] = target: T1, Amyloid-beta precursor protein; assay: Inhibition of amyloid beta-42 (unknown origin) beta sheets structure formation at 40 uM after 48 hrs by circular dichroism spectra analysis
SH-SY5Y [21] = assay: Cytotoxicity against human SH-SY5Y cells assessed as cell viability at 1 to 50 uM after 48 hrs by MTT assay; assay type: cell-based
[22] = target: T1, Amyloid-beta precursor protein; assay: Inhibition of swAPP-mediated amyloid beta-42 production in human HEK293 cells at 10 uM after 48 hrs by ELISA (reference value: 100 +/-3.45%); assay type: cell-based; design: scale not given: the % may be the effect or the level left

T1 sequence (P05067 whole entry): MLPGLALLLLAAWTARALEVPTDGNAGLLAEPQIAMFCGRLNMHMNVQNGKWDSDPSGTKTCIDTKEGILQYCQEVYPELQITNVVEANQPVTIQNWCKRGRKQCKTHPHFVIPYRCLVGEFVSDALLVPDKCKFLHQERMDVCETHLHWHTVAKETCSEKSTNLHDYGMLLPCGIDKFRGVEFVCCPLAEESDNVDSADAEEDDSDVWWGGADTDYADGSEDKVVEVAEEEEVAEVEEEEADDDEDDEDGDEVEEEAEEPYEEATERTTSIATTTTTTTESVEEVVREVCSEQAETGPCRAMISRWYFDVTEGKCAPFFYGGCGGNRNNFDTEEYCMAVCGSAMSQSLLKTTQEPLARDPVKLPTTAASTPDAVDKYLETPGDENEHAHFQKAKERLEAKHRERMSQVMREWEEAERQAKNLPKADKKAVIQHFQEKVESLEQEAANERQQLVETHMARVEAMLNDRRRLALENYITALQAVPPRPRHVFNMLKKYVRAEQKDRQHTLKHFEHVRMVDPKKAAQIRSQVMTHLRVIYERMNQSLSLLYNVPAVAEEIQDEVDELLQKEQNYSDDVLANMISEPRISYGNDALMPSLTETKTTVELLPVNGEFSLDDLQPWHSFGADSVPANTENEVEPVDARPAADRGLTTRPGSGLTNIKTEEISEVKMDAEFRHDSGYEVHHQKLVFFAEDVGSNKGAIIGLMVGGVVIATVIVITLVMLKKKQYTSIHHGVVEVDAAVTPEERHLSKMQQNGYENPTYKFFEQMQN

Compound	inhibition at 10 µM (SH-SY5Y [1])	inhibition [2]	inhibition [3]	inhibition (SH-SY5Y [1])	also measured
CC(C)c1ccc2c(c1)/C(=N/O)C[C@H]1[C@](C)(CNC(=O)C(F)(F)F)CCC[C@]21C	34.1%	inactive	inactive	–	–
CC(=O)NC[C@]1(C)CCC[C@]2(C)c3ccc(C(C)C)cc3/C(=N\NC(N)=S)C[C@@H]12	–	inactive	inactive	inactive	–
CC(C)c1c(N)cc2c(c1[N+](=O)[O-])CC[C@H]1[C@](C)(CNC(=O)c3ccc(O)c(O)c3)CCC[C@]21C	31.2%	26.1%	14.2%	–	–
C/C=C1\[C@H]2C=C(C)C[C@]1(N)c1ccc(=O)[nH]c1C2 [HUPERZINE A]	–	–	–	–	Time (Caenorhabditis elegans [4]): 48.3 h; Activity (Caenorhabditis elegans [5]): Active
CC(C)c1ccc2c(c1)CC[C@H]1[C@](C)(CN)CCC[C@]21C	–	inactive	inactive	inactive	–
CC(C)c1ccc2c(c1)CC[C@H]1[C@](C)(C/N=C\c3ccc(O)cc3O)CCC[C@]21C	26.1%	24.5%	10.7%	–	Activity (SH-SY5Y [6]): Non-toxic
CC(=O)NC[C@]1(C)CCC[C@]2(C)c3ccc(C(C)C)cc3/C(=N/NC(C)=O)C[C@@H]12	–	inactive	inactive	inactive	–
CC(=O)NC[C@]1(C)CCC[C@]2(C)c3ccc(C(C)C)cc3/C(=N/OC(=O)c3ccc(Cl)cc3)C[C@@H]12	10.4%	inactive	inactive	–	–
CC(=O)NC[C@]1(C)CCC[C@]2(C)c3ccc(C(C)C)cc3/C(=N/O)C[C@@H]12	41.2%	inactive	inactive	–	–
CC(C)c1ccc2c(c1)C(=O)C[C@H]1[C@](C)(CN)CCC[C@]21C	–	inactive	inactive	inactive	–
CC(C)c1c(NC(=O)/C=C/c2ccc(O)c(O)c2)cc2c(c1[N+](=O)[O-])CC[C@H]1[C@](C)(CNC(=O)/C=C/c3ccc(O)c(O)c3)CCC[C@]21C	62.4%	92%	82.8%	–	Time (Caenorhabditis elegans [7]): 50.5 h; Activity (SH-SY5Y [8]): 53.5%; inhibition [9]: Dose-dependent effect; Time (Caenorhabditis elegans [4]): 44.7 h; Time (Caenorhabditis elegans [10]): 48.2 h; Activity [11]: 10.4%; inhibition [12]: Active; inhibition [13]: Active; Time (Caenorhabditis elegans [14]): 48.8 h; Activity (Caenorhabditis elegans [15]): Active; Activity (SH-SY5Y [6]): Non-toxic; Activity (Caenorhabditis elegans [16]): Active; viability at 48 h, 25 µM [17]: > 90%; Activity [18]: Active; pIC50 [19]: 5.40; inhibition [20]: Active; Activity (SH-SY5Y [21]): Non-toxic; Activity [22]: 45.6%
CC(=O)NC[C@]1(C)CCC[C@]2(C)c3ccc(C(C)C)cc3/C(=N/NC(=O)c3ccncc3)C[C@@H]12	–	inactive	inactive	inactive	–
CC(=O)Oc1cc(/C=N\C[C@]2(C)CCC[C@]3(C)c4ccc(C(C)C)cc4CC[C@@H]23)cc(OC(C)=O)c1OC(C)=O	48.2%	20.6%	8.93%	–	–
CC(C)c1ccc2c(c1)CC[C@H]1[C@](C)(CNC(=O)c3cc(O)c(O)c(O)c3)CCC[C@]21C	50.8%	74.6%	49%	–	Activity (SH-SY5Y [6]): Non-toxic
CC(C)c1c(N)cc2c(c1[N+](=O)[O-])CC[C@H]1[C@](C)(CN)CCC[C@]21C	–	inactive	inactive	inactive	–
CC(=O)NC[C@]1(C)CCC[C@]2(C)c3ccc(C(C)C)cc3/C(=N\NC(N)=O)C[C@@H]12	13.3%	inactive	inactive	–	–
COc1cc(/C=C/C(=O)CC(=O)/C=C/c2ccc(O)c(OC)c2)ccc1O [CURCUMIN]	37.9%	–	–	–	Activity (SH-SY5Y [6]): Non-toxic
CC(=O)Oc1cc(C(=O)NC[C@]2(C)CCC[C@]3(C)c4ccc(C(C)C)cc4CC[C@@H]23)cc(OC(C)=O)c1OC(C)=O	41.8%	55.3%	37.6%	–	Activity (SH-SY5Y [6]): Non-toxic
CC(C)c1c(NC(=O)/C=C/c2ccc(O)c(O)c2)cc2c(c1NC(=O)/C=C/c1ccc(O)c(O)c1)CC[C@H]1[C@](C)(CNC(=O)/C=C/c3ccc(O)c(O)c3)CCC[C@]21C	53.9%	93.3%	82.5%	–	Activity (SH-SY5Y [6]): Non-toxic
CC(C)c1ccc2c(c1)C(=O)C[C@H]1[C@](C)(CNC(=O)C(F)(F)F)CCC[C@]21C	19.8%	inactive	inactive	–	–
CC(C)c1ccc2c(c1)/C(=N/NC(=O)c1ccncc1)C[C@H]1[C@](C)(CNC(=O)C(F)(F)F)CCC[C@]21C	–	inactive	inactive	inactive	–
